Test results from patent publication US20130022684A1 (HANMI SCIENCE CO., LTD., priority 2010, published 2013).
Values after ≈ are worked out from the molar mass of the structure shown. Where two headings read alike, the source gives them in different places.

Columns and labels:
[1] = parameters: species or system SD rats; settings: rat, in vivo, po, 88 mg
Description: The microcapsules were orally administered to 7 week-old male SD rats (Sprague Dawley, Samtako, 4 rats per one group, 7 days feeding ad libitum) by using Sonde. Blood samples were taken from the rats in a predetermined time interval, and the respective pharmacokinetic profiles were evaluated.

physchem = settings: water, thermodynamic from solid
Description: Each of distilled water and artificial intestinal juice (pH 6.8; USP) was added thereto to fill 100 mL, and the mixture was vigorously blended for 1 hr and passed through a 0.45 μm filter, followed by HPLC analysis.

[2] = fenofibric acid in plasma; cited from earlier work

| AUC 0-24 [1] [µg·h/mL] | Cmax [1] [µg/mL] | AUC 0-24 ([1]; male, Sprague-Dawley) [µg·h/mL] | Cmax ([1]; male, Sprague-Dawley) [µg/mL] | solubility at 1 hr (physchem) [µg/mL] | Compound | half-life of elimination in plasma [2] | time of peak plasma levels after administration [2] |
| --- | --- | --- | --- | --- | --- | --- | --- |
| 3477.7 ± 558.9 | 309.4 ± 62.2 |  |  |  | CC(C)(Oc1ccc(C(=O)c2ccc(Cl)cc2)cc1)C(=O)[O-].C[N+](C)(C)CCO [Choline fenofibrate] |  |  |
|  |  | 2078.3 ± 610.5 | 137.2 ± 37.9 |  | CC(C)OC(=O)C(C)(C)Oc1ccc(C(=O)c2ccc(Cl)cc2)cc1 [Fenofibrate] |  |  |
|  |  | 2742.2 ± 218.1 | 209.3 ± 26.1 | 165 (≈ 518 µM) | CC(C)(Oc1ccc(C(=O)c2ccc(Cl)cc2)cc1)C(=O)O [Fenofibric acid, 2-[4-(4-chlorobenzoyl)phenoxy]-2-methyl-propanoic acid] | about 20 hours | about 5 hours |
